Reference: publication PMC12667509, “Inhibition of Macrophage ARID3A Alleviates Myocardial Ischemia‐Reperfusion Injury After Heart Transplantation by Reducing THBS1/CD47 Signaling‐Mediated Neutrophil Extracellular Traps Formation” (Advanced Science, 2025)

Target: T1, ARID3A (Homo sapiens, UniProt Q99856)
T1 construct: recombinant human protein immobilised on CM5 chip
T1 sequence (Q99856 1-593): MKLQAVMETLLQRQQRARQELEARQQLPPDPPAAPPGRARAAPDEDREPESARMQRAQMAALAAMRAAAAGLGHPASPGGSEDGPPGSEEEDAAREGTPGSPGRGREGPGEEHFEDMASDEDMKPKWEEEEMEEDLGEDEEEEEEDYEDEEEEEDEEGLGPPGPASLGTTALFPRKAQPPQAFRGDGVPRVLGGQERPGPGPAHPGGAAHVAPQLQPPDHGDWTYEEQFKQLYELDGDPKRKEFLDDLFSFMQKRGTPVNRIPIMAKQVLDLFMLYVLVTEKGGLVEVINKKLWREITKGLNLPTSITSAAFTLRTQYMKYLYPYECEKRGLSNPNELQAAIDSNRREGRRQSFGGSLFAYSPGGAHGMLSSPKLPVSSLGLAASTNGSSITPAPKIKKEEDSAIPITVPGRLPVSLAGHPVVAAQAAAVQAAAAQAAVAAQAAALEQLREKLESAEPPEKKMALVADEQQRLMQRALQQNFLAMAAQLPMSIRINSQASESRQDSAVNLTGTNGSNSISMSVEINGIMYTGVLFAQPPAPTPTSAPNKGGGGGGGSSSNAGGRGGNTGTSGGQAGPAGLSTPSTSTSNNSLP
Assay: SPR (Biacore T200, CM5 chip, kinetic analysis)
Type: binding

Kd: 7.64 µM
Structure (SMILES): C=C(CC(=O)OCCCCCCCC)C(=O)O [4‐OI, 4‐octyl itaconate]
